Here are results for 13 compounds from ChEMBL document CHEMBL1201862, “PubChem BioAssay data set” (2004).

Some test systems named below: SN12C; HCC 2998; TK-10; HOP-92; IGROV-1; MCF7; HOP-62; SF-295; K562; SK-MEL-2; SNB-19; SK-MEL-28; PC-3; HCT-15; UACC-62; NCI-H226; HL-60.
Common to all, as to assay: NCI-60 cell line screen, 48 h

Molecules are shown by their SMILES.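 Five compound concentrations were applied to cells in 96-well plates for 48 hours; endpoints were derived by simple linear interpolation of the resulting dose-response curve. Abbreviation: GI50, concentration required for 50% inhibition of growth.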 Activity calls are given as the source filed them. No stated cut-off is given here; in the data, active = GI50 up to about 1.1 µM and inactive = higher.

In the case of `COc1cc2c3c4[n+](cc2c(OC)c1OC)CCC4CCC3` (stereo not given), the GI50 was > 100 µM (inactive) with SN12C; > 93.1 µM (inactive) with HCC 2998; > 100 µM (inactive) with TK-10; > 100 µM (inactive) with HOP-92; > 100 µM (inactive) in the test with IGROV-1; 75.2 µM (inactive) with MCF7. Further, the GI50 in the test with HOP-62 was > 100 µM (inactive); in the test with SF-295, > 100 µM (inactive); in the test with K562, 17.9 µM (inactive); with SK-MEL-2 it was > 95.1 µM (inactive); with SNB-19, 48.9 µM (inactive); with SK-MEL-28 it was > 100 µM (inactive). For the same compound, the GI50 in the test on PC-3 is > 100 µM (inactive); in the test with HCT-15, more than 100 µM; in the test with UACC-62, > 100 µM (inactive); in the test on NCI-H226 it was > 100 µM (inactive).

Turning to `COc1ccc2c(c1)c1c(n2CCN(C)C)-c2cccc(OC)c2CC1`, the GI50 in the test on SN12C was 13.7 µM (inactive); with HCC 2998, 11.6 µM (inactive); in the test with TK-10, 19.2 µM (inactive); in the test with HOP-92, 17.7 µM (inactive); in the test on IGROV-1, 18.5 µM (inactive); in the test with MCF7, 13.2 µM (inactive). Besides, the GI50 was 13.8 µM (inactive) in the test with HOP-62; 13.5 µM (inactive) in the test on SF-295; 2.02 µM (inactive) in the test on K562; 15.6 µM (inactive) with SK-MEL-2; 18.8 µM (inactive) in the test on SNB-19; 14.2 µM (inactive) in the test on SK-MEL-28. Also, the GI50 in the test on PC-3 was 11.6 µM (inactive); with HCT-15, 15.3 µM; with UACC-62, 15.2 µM (inactive); with NCI-H226, 4.49 µM (inactive).

On to `CN1C(=O)C(CC=O)(C(C)(C)C)c2ccccc21` (stereo not given), for which the GI50 was > 100 µM (inactive) in the test with SN12C; > 100 µM (inactive) with HCC 2998; 69 µM (inactive) in the test on HOP-92; 69.7 µM (inactive) with MCF7; > 100 µM (inactive) in the test with HOP-62; > 100 µM (inactive) with HL-60. In addition, the GI50 with SF-295 was > 100 µM (inactive); with K562 it was 91.6 µM (inactive); in the test on SK-MEL-2, > 100 µM (inactive); in the test on SNB-19 it was > 100 µM (inactive); in the test on SK-MEL-28, > 100 µM (inactive); in the test on PC-3, > 100 µM (inactive). Moreover, the GI50 is 90.6 µM with HCT-15 and 93.5 µM (inactive) with UACC-62.

For the compound `COc1c(C)c(C/C=C(\C)CCCC(C)CCCC(C)CCCC(C)C)c(OC)c2ccccc12` (stereo not given), the GI50 in the test on SN12C, in the test on HCC 2998, in the test on TK-10, in the test on HOP-92, in the test with IGROV-1 and in the test on MCF7 was > 100 µM (inactive) throughout. Besides, the GI50 in the test on SF-295 is > 100 µM (inactive); in the test with K562, > 100 µM (inactive); in the test with SK-MEL-2 it was > 100 µM (inactive); in the test with SNB-19, > 100 µM (inactive); in the test with PC-3, > 100 µM (inactive); with HCT-15, more than 100 µM. In addition, in the test with UACC-62, the GI50 was > 100 µM (inactive).

Take `O=C(NCC(O)COc1ccccc1)c1ccccc1O` (stereo not given): the GI50 in the test with SN12C is > 100 µM (inactive); in the test on HCC 2998, > 100 µM (inactive); in the test with TK-10, > 100 µM (inactive); in the test on HOP-92, 86.1 µM (inactive); in the test with IGROV-1, > 100 µM (inactive); in the test on MCF7 it was > 100 µM (inactive). For the same compound, the GI50 with HOP-62 is > 100 µM (inactive); in the test with SF-295 it was > 100 µM (inactive); in the test on K562, > 100 µM (inactive); in the test with SK-MEL-2, > 100 µM (inactive); with SNB-19 it was 91 µM (inactive); in the test on SK-MEL-28 it was > 100 µM (inactive). For the same compound, the GI50 was 66.1 µM (inactive) with PC-3, more than 100 µM in the test with HCT-15, 55 µM (inactive) in the test on UACC-62 and > 100 µM (inactive) with NCI-H226.

For `c1ccc(C2SCC3=Nc4ccccc4CN32)cc1` (stereo not given), the GI50 in the test with SN12C was > 100 µM (inactive); with HCC 2998 it was 61.7 µM (inactive); with TK-10, 75.2 µM (inactive); in the test with HOP-92, 50.8 µM (inactive); with MCF7 it was 26.9 µM (inactive); in the test with HOP-62, 26.1 µM (inactive). Moreover, the GI50 in the test on HL-60 was 23.6 µM (inactive); in the test on SF-295, 14.7 µM (inactive); in the test with K562 it was 33.5 µM (inactive); in the test with SNB-19, 13.4 µM (inactive); in the test on SK-MEL-28 it was 50.4 µM (inactive); with PC-3, 25.9 µM (inactive). For the same compound, the GI50 in the test on HCT-15 was 51.4 µM; with UACC-62, 60.1 µM (inactive).

In the case of `COc1ccc(-c2nc(-c3cnccn3)n(C3OC(CO)C(O)C(O)C3O)n2)cc1` (stereo not given), the GI50 in the test on SN12C, in the test with HCC 2998, with TK-10, with HOP-92, in the test on IGROV-1 and in the test with MCF7 was > 100 µM (inactive) each time. The GI50 in the test with HOP-62, with HL-60, in the test on SF-295, in the test on K562, with SNB-19 and in the test with SK-MEL-28 was > 100 µM (inactive) in each case. Moreover, the GI50 is > 100 µM (inactive) with PC-3, more than 100 µM in the test on HCT-15 and > 100 µM (inactive) with UACC-62.

Turning to `O=[N+]([O-])C1CC/C(=N/O)c2nonc21` (stereo not given), the GI50 in the test with SN12C, in the test on HCC 2998, in the test with TK-10, in the test on HOP-92, with IGROV-1 and in the test with MCF7 was > 10 µM (inactive) in each case. Besides, the GI50 with HOP-62, in the test with HL-60, in the test on SF-295, with K562, in the test on SNB-19 and with SK-MEL-28 was > 10 µM (inactive) in each case. Moreover, the GI50 was > 10 µM (inactive) in the test on PC-3, more than 10 µM in the test on HCT-15, > 10 µM (inactive) in the test on UACC-62 and > 10 µM (inactive) in the test on NCI-H226.

Take `COC(=O)C1=CCC[C@H]2[C@@]1(COC(C)=O)CC[C@@H](C)[C@]2(C)CC(=O)c1ccoc1`: the GI50 in the test with SN12C is 17.8 µM (inactive); with HCC 2998, 12.9 µM (inactive); with TK-10, 18.2 µM (inactive); in the test on HOP-92, 10.9 µM (inactive); with IGROV-1, 15.9 µM (inactive); with MCF7 it was 16.1 µM (inactive). Moreover, the GI50 is 10.8 µM (inactive) with HL-60; 19.3 µM (inactive) in the test on SF-295; 15.7 µM (inactive) in the test on SK-MEL-2; 27.9 µM (inactive) with SNB-19; 14.7 µM (inactive) in the test on PC-3; 13.9 µM in the test on HCT-15. For the same compound, the GI50 in the test on UACC-62 is 7.93 µM (inactive); with NCI-H226, 15.8 µM (inactive).

`COc1cc2c(c(OC3OC(CO)C(O)C(O)C3O)c1)C(=O)CC(c1ccc(O)cc1)O2` (stereo not given): the GI50 with SN12C, with HCC 2998, in the test with TK-10, with HOP-92, with IGROV-1 and in the test on MCF7 was > 100 µM (inactive) throughout. For the same compound, the GI50 in the test with HL-60, in the test with SF-295, in the test on K562, in the test with SK-MEL-2, in the test with SNB-19 and in the test with SK-MEL-28 was > 100 µM (inactive) each time. The GI50 was > 100 µM (inactive) with PC-3, more than 100 µM in the test with HCT-15, > 100 µM (inactive) in the test on UACC-62 and > 100 µM (inactive) with NCI-H226.

For the compound `Cc1ccc(NC(=S)C#N)cc1Cl`, the GI50 in the test on SN12C is 58.5 µM (inactive); with HCC 2998 it was 24.3 µM (inactive); in the test on TK-10 it was 60.4 µM (inactive); with HOP-92, 13.4 µM (inactive); in the test on IGROV-1, 17.1 µM (inactive); in the test with MCF7 it was 56.2 µM (inactive). Besides, the GI50 in the test with HOP-62 was 49.1 µM (inactive); in the test with SF-295, 26.4 µM (inactive); in the test with K562, 39.3 µM (inactive); in the test on SK-MEL-2, 35.5 µM (inactive); in the test with SK-MEL-28 it was 41.2 µM (inactive); in the test on PC-3, 43.4 µM (inactive). The GI50 with HCT-15 is 23.3 µM; in the test on UACC-62 it was 37.9 µM (inactive); in the test with NCI-H226, 24.3 µM (inactive).

`CC(=O)c1ccc(N2CCN(C3=CC(=O)c4c(O)ccc(O)c4C3=O)CC2)cc1`: the GI50 was > 100 µM (inactive) in the test on HCC 2998; 61 µM (inactive) in the test on TK-10; 25.8 µM (inactive) in the test on HOP-92; 45.9 µM (inactive) in the test with IGROV-1; 35.9 µM (inactive) with MCF7; 29.9 µM (inactive) with HOP-62. Also, the GI50 was 10.4 µM (inactive) in the test with HL-60; 35 µM (inactive) with SF-295; 37.5 µM (inactive) with K562; 62.4 µM (inactive) with SNB-19; > 100 µM (inactive) in the test with SK-MEL-28; 66.1 µM (inactive) in the test with PC-3. The GI50 in the test with HCT-15 was 5.41 µM; in the test on UACC-62, 31.4 µM (inactive).

For `COc1ccc2[nH]c(Cl)c(/C=C3/C(=O)N(c4ccccc4)c4ccccc43)c2c1`, the GI50 in the test on SN12C is 4.78 µM (inactive); in the test on HCC 2998, 4.24 µM (inactive); with TK-10, 10.8 µM (inactive); in the test with HOP-92, 13.7 µM (inactive); in the test on IGROV-1, 4.84 µM (inactive); in the test on MCF7 it was 0.506 µM (active). Also, the GI50 with HOP-62 was 6.81 µM (inactive); in the test with HL-60, 2.33 µM (inactive); with SF-295, 2.48 µM (inactive); with K562 it was 3.18 µM (inactive); with SK-MEL-2, 2.92 µM (inactive); in the test with SNB-19 it was 9.46 µM (inactive). Moreover, the GI50 is 8.49 µM (inactive) with SK-MEL-28, 3.7 µM (inactive) in the test with PC-3, 2.58 µM in the test on HCT-15 and 5.21 µM (inactive) with UACC-62.
